Measured values as given in US11987645B2, “Peptide for treating rheumatoid arthritis and use thereof” (SEOUL NATIONAL UNIVERSITY R&DB FOUNDATION, priority 2018, dated 2024).

What was measured:
[1] = system: K/B×N rheumatoid arthritis animal model; assay: Example 3-2: K/B×N rheumatoid arthritis animal model (K/B×N serum transfer arthritis mouse); assay type: in vivo; conditions: subcutaneous injection to the affected region; K/B×N serum and apoB induced; FIG. 11
Text: K/B×N rheumatoid arthritis animal model (K/B×N serum transfer arthritis mouse) was established by inducing moderate rheumatoid arthritis by administering K/B×N serum and apoB to the mouse, and peptides for inhibiting the secretion of inflammatory cytokine were subcutaneously injected to the affected region of the animal model. Afterwards, changes in the ankle thickness and arthritis score resulting after peptide injection were identified. In addition, under the same conditions as described above, changes in the synovial inflammation, bone erosion, cartilage damage and leukocyte infiltration were compared. Meanwhile, groups treated with K/B×N serum and apoB only were determined as control groups, and groups treated with K/B×N serum and apoB, and a non-binding peptide treated group (NBP) were determined as comparison groups.

[2] = system: peripheral blood mononuclear cells obtained from rheumatoid arthritis patients; assay: Inflammatory cytokine secretion after treating peripheral blood mononuclear cells of rheumatoid arthritis patients with apoB100-derived peptides #1 to #5; assay type: cell-based, human; conditions: PBMC of rheumatoid arthritis patients; control non-binding peptide (NBP); FIG. 8
Experimental: Thereafter, peripheral blood mononuclear cells obtained from the healthy control and rheumatoid arthritis patients were treated with the peptides #1 to #5 (which are named apoB100 #1, apo100 #2, apoB100 #3, apoB100 #4, and apoB100 #5, respectively), and changes in the secretion of IL-1β, IL-6 and TNF-α were compared. Meanwhile, a non-binding peptide treated group (NBP) was determined as the control group, and the results of this example are indicated as the mean values of the secretion levels for each six of rheumatoid arthritis patients and healthy individuals.

[3] = system: peripheral blood cells derived from rheumatoid arthritis patients; assay: Example 3-1: inflammatory cytokine secretion in peripheral blood cells derived from rheumatoid arthritis patients; assay type: cell-based, human; conditions: FIG. 10; for secretion level of IL-1β / secretion level of IL-6 / secretion level of TNF-α: peripheral blood cells of rheumatoid arthritis patients, control NBP
Experimental: After peripheral blood cells derived from rheumatoid arthritis patients were treated with apoB100 #1, apoB100 #3, and apoB100 #5, changes in the secretion of IL-1β, IL-6 and TNF-α were identified. A non-binding peptide treated group (NBP) was determined as the control group.

[4] = system: peripheral blood mononuclear cells isolated from rheumatoid arthritis patients; assay: Inflammatory cytokine secretion after treating peripheral blood mononuclear cells of rheumatoid arthritis patients with apoB100; assay type: cell-based, human
Text: In this example, in order to identify the relation between rheumatoid arthritis and ENO1 expression on peripheral blood mononuclear cells, the ENO1 expression thereof was observed. In addition, it was attempted to identify the effect of binding ENO1 (α-enolase) to apolipoprotein B100 (apoB100) isolated from a rheumatoid arthritis patient and selected as an ENO1 (α-enolase) binding ligand on the secretion of inflammatory cytokine in the peripheral blood of the rheumatoid arthritis patient through proteomic analysis using immunoprecipitation (IP)/mass spectroscopy (MS). In detail, after ENO1 immunoblotting was performed on mononuclear cells obtained from the rheumatoid arthritis patient and peripheral blood mononuclear cells were treated with apoB100, changes in the secretion of IL-1β, IL-6 and TNF-α were compared. Meanwhile, a group in which cells isolated from healthy individuals are used (HC: healthy control) was determined as the control group.
Accordingly, in this example, it was additionally verified whether the binding of ENO1 and apoB100 crucially affected inflammation responses due to rheumatoid arthritis. […] In addition, since LDL existing in vivo in a state in which it binds to apoB100 protein may potentially involve the inflammation responses, LDLR knockout mouse and C57BL/6 wild-type mouse control group were treated with the serum of K/B×N mouse (referred to as K/B×N serum, hereinafter) and ApoB100, and resulting changes in vivo were compared. Meanwhile, addition of K/B×N mouse serum functions to induce rheumatoid arthritis through deposition of autoantibodies existing in the K/B×N serum, and is one of conventional techniques for manufacturing rheumatoid arthritis animal models by autoimmune responses.

ENO1 (α-enolase) = ENO1 (α-enolase) (Homo sapiens, UniProt P06733); assay: ENO1-apoB100 binding by immunoblotting, confocal microscopy, BIACORE system and ELISA assay; conditions: ELISA, FIG. 3
[5] = RA patient mononuclear cells treated with apoB100, compared to healthy control group, FIG. 2

Sequence of ENO1 (α-enolase) (P06733 whole entry): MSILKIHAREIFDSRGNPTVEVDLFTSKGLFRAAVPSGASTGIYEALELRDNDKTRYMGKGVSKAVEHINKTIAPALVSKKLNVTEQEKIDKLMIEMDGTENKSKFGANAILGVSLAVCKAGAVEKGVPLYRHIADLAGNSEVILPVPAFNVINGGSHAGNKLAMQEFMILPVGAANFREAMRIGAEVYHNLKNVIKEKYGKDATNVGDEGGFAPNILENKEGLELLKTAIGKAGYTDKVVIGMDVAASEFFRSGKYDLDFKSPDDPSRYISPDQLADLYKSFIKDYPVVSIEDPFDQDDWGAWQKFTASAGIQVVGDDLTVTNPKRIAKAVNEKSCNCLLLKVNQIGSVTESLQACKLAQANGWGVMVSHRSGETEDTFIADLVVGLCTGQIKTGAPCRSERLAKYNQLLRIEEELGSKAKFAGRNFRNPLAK

Substance | ankle thickness [1] | arthritis score [1] | secretion level of IL-1β [2] | secretion level of IL-6 [2] | secretion level of TNF-α [2] | secretion level of IL-1β [3] | secretion level of IL-6 [3] | secretion level of TNF-α [3] | treatment efficacy (decrease of cytokine secretion) compared among the peptides ([3]; among apoB100 #1, #3 and #5) | secretion level of inflammatory cytokines ([4]; ENO1 expression of PBMC inhibited with ENO1 siRNA, then apoB100 treatment, FIG. 4) | secretion level of IL-1β [4, 5] | secretion level of IL-6 [4, 5] | secretion level of TNF-α [4, 5] | ENO1-apoB100 binding (ENO1 (α-enolase))
AICKEQHLFLPF (peptide #1) [apoB100 #1] | significantly decreased | significantly decreased | decreased | decreased | decreased | significantly decreased | significantly decreased | significantly decreased |  |  |  |  |  | 
CKEQHLFLPFSY (peptide #2) [apoB100 #2] |  |  | markedly increased | markedly increased | markedly increased |  |  |  |  |  |  |  |  | 
KNKYGMVAQVTQ (peptide #4) [apoB100 #4] |  |  | markedly increased | markedly increased | markedly increased |  |  |  |  |  |  |  |  | 
SYKNKYGMVAQV (peptide #3) [apoB100 #3] | significantly decreased | significantly decreased | decreased | decreased | decreased | significantly decreased | significantly decreased | significantly decreased | highest |  |  |  |  | 
TKKMGLAFESTK (peptide #5) [apoB100 #5] | significantly decreased | significantly decreased | decreased | decreased | decreased | significantly decreased | significantly decreased | significantly decreased |  |  |  |  |  | 
apolipoprotein B100 [apoB100] |  |  |  |  |  |  |  |  |  | an increased secretion level of inflammatory cytokines was not observed | markedly increased | markedly increased | markedly increased | relatively strong binding
